Data published in PubChem BioAssay (NCI).
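Test compounds were applied to cells in 96-well plates for 48 hours at 5 doses. TGI denotes the concentration required for complete inhibition of growth.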

Legend:
Test in all cases: DTP human tumour cell line panel, 48 h
RXF 393 renal = tested on: RXF 393 renal
NCI-H460 lung = tested on: NCI-H460 lung
DMS 273 small cell lung = tested on: DMS 273 small cell lung
NCI-H522 lung = tested on: NCI-H522 lung
NCI-H23 lung = tested on: NCI-H23 lung
NCI-H226 lung = tested on: NCI-H226 lung
RPMI-8226 leukemia = tested on: RPMI-8226 leukemia
SNB-78 CNS = tested on: SNB-78 CNS
OVCAR-4 ovarian = tested on: OVCAR-4 ovarian
M14 melanoma = tested on: M14 melanoma
HL-60(TB) leukemia = tested on: HL-60(TB) leukemia
SF-539 CNS = tested on: SF-539 CNS
LXFL 529 NSCLC = tested on: LXFL 529 NSCLC
SK-MEL-28 melanoma = tested on: SK-MEL-28 melanoma
MOLT-4 leukemia = tested on: MOLT-4 leukemia
U251 CNS = tested on: U251 CNS
HCC-2998 colon = tested on: HCC-2998 colon
K-562 leukemia = tested on: K-562 leukemia
786-0 renal = tested on: 786-0 renal
SNB-75 CNS = tested on: SNB-75 CNS
HCT-116 colon = tested on: HCT-116 colon
CCRF-CEM leukemia = tested on: CCRF-CEM leukemia
KM20L2 colon = tested on: KM20L2 colon
SNB-19 CNS = tested on: SNB-19 CNS
HOP-62 NSCLC = tested on: HOP-62 NSCLC
LOX IMVI melanoma = tested on: LOX IMVI melanoma
DLD-1 colon = tested on: DLD-1 colon

Measured: TGI

Cc1cnc(-c2ccccc2)o1
> 100 µM: all assays above
